Data: patent publication US12427129B2, “Application of compound amino acids in preparation of medicament for improving sensitivity of bacteria to antibiotics” (SUN YAT-SEN UNIVERSITY, priority 2020, dated 2025)
In brackets after ≈: the same amount, converted by molar mass. Where two headings read alike, the source gives them in different places.

Tests used:
[1] = system: Escherichia coli cefazolin-resistant bacteria; assay: survival rate with single amino acids or amino acid combination in synergy with cefazolin; assay type: cell-based
Method: Each amino acid in 2 mM compound amino acids was added alone with a corresponding concentration, and through survival rate of bacteria, it was studied improvement on sensitivity of bacteria to antibiotics when each amino acid was in synergy with cefazolin.

[2] = system: Escherichia coli sensitive bacteria K12; assay: survival rate of bacteria by plate count, compound amino acids in synergy with antibiotics; assay type: cell-based; conditions: for survival rate of bacteria: first of 7 values, taken as no compound amino acids
[3] = system: ampicillin-resistant bacteria (K12-RAMP); assay: survival rate of bacteria, compound amino acids in synergy with ampicillin; assay type: cell-based, Escherichia coli; conditions: ampicillin 2000 μg/mL; second of 8 values, taken as ampicillin without compound amino acids
Method: Taking Escherichia coli sensitive bacteria K12 and artificially passaged ampicillin-resistant bacteria (K12-RAMP) as research objects, for the former, concentration of ampicillin was 40 μg/mL, and for the latter, concentration of ampicillin was 2000 μg/mL. It was investigated effects of 0.125, 0.5, 2.0, 8.0, 32, and 64 mM compound amino acids in synergy with antibiotics of the above concentrations on survival rates of sensitive bacteria and corresponding resistant bacteria.

[4] = system: balofloxacin-resistant bacteria (K12-RBLFX); assay: survival rate of bacteria, compound amino acids in synergy with balofloxacin; assay type: cell-based, Escherichia coli; conditions: balofloxacin 25 μg/mL; second of 8 values, taken as balofloxacin without compound amino acids
Method: Taking Escherichia coli sensitive bacteria K12 and balofloxacin-resistant artificially passaged resistant bacteria (K12-RBLFX) as research objects, for the former, concentration of balofloxacin was 0.2 μg/mL, and for the latter, concentration of balofloxacin was 25 μg/mL. It was investigated effects of compound amino acids of different concentrations in synergy with antibiotics of the above concentrations on survival rates of sensitive bacteria and corresponding resistant bacteria.

[5] = system: Escherichia coli sensitive bacteria K12; assay: MIC against cefazolin; assay type: cell-based
Source text: (§1) Escherichia coli (E. coli) is one of the most common bacteria in clinical practice. 35 Escherichia coli strains clinically obtained were named as Y1 to Y12, Y15 to Y24, Y27, Y28, and Y30 to Y40. The minimum inhibitory concentration (MIC) of these 35 Escherichia coli strains clinically obtained against cefazolin antibiotics was detected according to the NCCLS method, at the same time, Escherichia coli sensitive bacteria K12 and cefazolin-resistant bacteria K12-RCZO were used as controls to determine the MIC.

[6] = system: Escherichia coli cefazolin-resistant bacteria (K12-RCZO); assay: MIC against cefazolin; assay type: cell-based
Source text: as §1

Vibrio parahaemolyticus = assay: survival rate, compound amino acids in synergy with cefazolin; assay type: cell-based; conditions: cefazolin 80 μg/mL without compound amino acids, 6 h
Method: (§2) Other Gram-negative bacteria such as Vibrio alginolyticus, Vibrio parahaemolyticus, and Pseudomonas aeruginosa, and Gram-positive bacteria Bacillus subtilis were selected as research objects to investigate bactericidal effect of compound amino acids in synergy with cefazolin; among them, concentration of compound amino acids was 2 mM, concentration of cefazolin was 80 μg/mL, and incubation time was 6 h, a relative survival rate of bacteria was calculated.

Pseudomonas aeruginosa = assay: as above; assay type: cell-based; conditions: cefazolin 80 μg/mL without compound amino acids, 6 h
Method: as §2

Vibrio alginolyticus = assay: as above; assay type: cell-based; conditions: cefazolin 80 μg/mL without compound amino acids, 6 h
Method: as §2

Bacillus subtilis = assay: as above; assay type: cell-based; conditions: cefazolin 80 μg/mL without compound amino acids, 6 h
Method: as §2

[7] = system: Escherichia coli strains clinically obtained; assay: MIC against cefazolin (NCCLS method); assay type: cell-based
Source text: as §1

[8] = system: resistant bacteria K12-RCZO; assay type: cell-based, Escherichia coli
Method: Preparation of bacterial samples: monoclonal bacteria of sensitive bacteria K12 or resistant bacteria K12-RCZO were picked and inoculated in 50 mL LB liquid medium respectively. After incubation for 17 h at 37° C. and 200 rpm, bacterial cells were collected by centrifugation at 8000 rpm for 4 min; the bacterial cells were washed twice with 0.85% normal saline, suspended in 1×M9 medium, adjusted to OD600 as 0.6, and then dispensed 5 mL into test tubes for subsequent experimental research.
Each of prepared bacterial samples was divided into 4 groups: control group, group of 2 mM 5% compound amino acids added only, and group of cefazolin antibiotics added only (a concentration being 80 μg/mL for sensitive bacteria K12, and a concentration being 2 mg/mL for resistant bacteria K12-RCZO), and group of cefazolin and 2 mM compound amino acids added. Bacteria were incubated at 37° C. and 200 rpm for 6 h, and then 100 μL was taken for doubling dilution, and 10 μL of bacterial solution was taken therefrom for plate count to calculate a survival rate of bacteria; results are shown in FIG. 3.
In order to explore the relationship between compound amino acids improving sensitivity of resistant bacteria to antibiotics and antibiotic concentration, 8 cefazolin concentration gradients (0, 62.5, 125, 250, 500, 1,000, 2,000 and 4,000 μg/mL) were set up; then, 2 mM compound amino acids were added or not added, respectively, after 6 h, plate count method was used to count viable bacteria; under the same antibiotics concentration, survival rates of bacteria when compound amino acids not added (control) and after compound amino acids added were compared.

C[C@H](N)C(=O)O [alanine]
survival rate ([1]; amino acid alone at 404 μM in synergy with cefazolin): 73.6%

CC1(C)S[C@@H]2[C@H](NC(=O)[C@H](N)c3ccccc3)C(=O)N2[C@H]1C(=O)O [ampicillin]
survival rate ([2]; ampicillin 40 μg/mL, second of 8 values, taken as ampicillin without compound amino acids): 86.7%
survival rate [3]: 87.2%

N=C(N)NCCC[C@H](N)C(=O)O [arginine]
survival rate ([1]; amino acid alone at 140 μM in synergy with cefazolin): 97.3%

N[C@@H](CC(=O)O)C(=O)O [aspartate]
survival rate ([1]; amino acid alone at 56 μM in synergy with cefazolin): 94.5%

CNC1CCCN(c2c(F)cc3c(=O)c(C(=O)O)cn(C4CC4)c3c2OC)C1 (centres unmarked) [balofloxacin]
survival rate [4]: 90.2%

Cc1nnc(SCC2=C(C(=O)O)N3C(=O)[C@@H](NC(=O)Cn4cnnn4)[C@H]3SC2)s1 [cefazolin]
MIC [5]: 1.25 µg/mL (≈ 2.75 µM)
MIC ([6]; Escherichia coli, read-out: MIC against cefazolin): 80 µg/mL (≈ 176 µM)
MIC relative to that of the starting strain ([6]; K12-RCZO vs K12): 64 times
survival rate ([2]; cefazolin 80 μg/mL, compound amino acids 0 mM, 6 h): 89.6%
survival rate of bacteria ([1]; M9 control group with antibiotics added (1 mg/mL cefazolin), 6 h): 45.9%
survival rate of bacteria ([1]; only cefazolin is added): 85.04%
survival rate (Vibrio parahaemolyticus): 79.3%
survival rate (Pseudomonas aeruginosa): 85.9%
survival rate (Vibrio alginolyticus): 62.1%
survival rate (Bacillus subtilis): 58.0%
MIC ([7]; 37% of the remaining clinical Escherichia coli resistant bacteria): > 640 µg/mL
MIC ([7]; clinical strain Y1): 40 µg/mL (≈ 88 µM)
MIC ([7]; clinical strain Y3): 2.5 µg/mL (≈ 5.5 µM)
MIC ([7]; clinical strain Y5): 10 µg/mL (≈ 22 µM)
MIC ([7]; clinical strain Y6): 40 µg/mL (≈ 88 µM)
MIC ([7]; clinical strain Y7): 2.5 µg/mL (≈ 5.5 µM)
MIC ([7]; clinical strain Y8): 5 µg/mL (≈ 11 µM)
MIC ([7]; clinical strain Y11): 10 µg/mL (≈ 22 µM)
MIC ([7]; clinical strain Y12): 40 µg/mL (≈ 88 µM)
MIC ([7]; clinical strain Y15): 5 µg/mL (≈ 11 µM)
MIC ([7]; clinical strain Y16): 5 µg/mL (≈ 11 µM)
MIC ([7]; clinical strain Y17): 10 µg/mL (≈ 22 µM)
MIC ([7]; clinical strain Y18): 20 µg/mL (≈ 44 µM)
MIC ([7]; clinical strain Y19): 5 µg/mL (≈ 11 µM)
MIC ([7]; clinical strain Y20): 20 µg/mL (≈ 44 µM)
MIC ([7]; clinical strain Y21): 20 µg/mL (≈ 44 µM)
MIC ([7]; clinical strain Y22): 5 µg/mL (≈ 11 µM)
MIC ([7]; clinical strain Y23): 2.5 µg/mL (≈ 5.5 µM)
MIC ([7]; clinical strain Y24): 20 µg/mL (≈ 44 µM)
MIC ([7]; clinical strain Y28): 5120 µg/mL (≈ 11300 µM)
MIC ([7]; clinical strain Y32): 5120 µg/mL (≈ 11300 µM)
MIC ([7]; clinical strain Y36): 5120 µg/mL (≈ 11300 µM)
MIC ([7]; clinical strain Y40): 20 µg/mL (≈ 44 µM)
survival rate of bacteria ([8]; as printed in b79: K12-RCZO, compound amino acids 0 mM, 1000 μg/mL cefazolin (results of FIG. 4)): 89.6%
survival rate of bacteria ([8]; cefazolin 62.5 μg/mL, compound amino acids not added, 6 h): 87.5%
survival rate of bacteria ([8]; cefazolin 125 μg/mL, compound amino acids not added, 6 h): 96.9%
survival rate of bacteria ([8]; cefazolin 250 μg/mL, compound amino acids not added, 6 h): 83.3%
survival rate of bacteria ([8]; cefazolin 500 μg/mL, compound amino acids not added, 6 h): 78.6%
survival rate ([8]; cefazolin 1,000 μg/mL, compound amino acids 0 mM, 6 h): 92.6%
survival rate of bacteria ([8]; cefazolin 1,000 μg/mL, compound amino acids not added, 6 h): 83.3%
survival rate of bacteria ([8]; cefazolin 2,000 μg/mL, compound amino acids not added, 6 h): 84.4%
survival rate of bacteria ([8]; cefazolin 4,000 μg/mL, compound amino acids not added, 6 h): 69.8%

CO/N=C(\C(=O)N[C@@H]1C(=O)N2C(C(=O)O)=C(CSC(=O)c3ccco3)CS[C@H]12)c1csc(N)n1 [ceftiofur]
survival rate of bacteria ([2]; ceftiofur 200 μg/mL, 6 h): 61.9%

CO/N=C(\C(=O)N[C@@H]1C(=O)N2C(C(=O)O)=C(CSc3nc(=O)c(=O)[nH]n3C)CS[C@H]12)c1csc(N)n1 [ceftriaxone]
survival rate of bacteria ([2]; ceftriaxone 10 μg/mL, 6 h): 73.1%

N[C@@H](CSSC[C@H](N)C(=O)O)C(=O)O [cystine]
survival rate ([1]; amino acid alone at 4 μM in synergy with cefazolin): 94.1%

N[C@@H](CCC(=O)O)C(=O)O [glutamic acid]
survival rate ([1]; amino acid alone at 85 μM in synergy with cefazolin): 94.5%

NCC(=O)O [glycine]
survival rate ([1]; amino acid alone at 233 μM in synergy with cefazolin): 71.4%

N[C@@H](Cc1c[nH]cn1)C(=O)O [histidine]
survival rate ([1]; amino acid alone at 96 μM in synergy with cefazolin): 97.6%

CC[C@H](C)[C@H](N)C(=O)O [isoleucine]
survival rate ([1]; amino acid alone at 95 μM in synergy with cefazolin): 69.6%

CC(C)C[C@H](N)C(=O)O [leucine]
survival rate ([1]; amino acid alone at 129 μM in synergy with cefazolin): 75.7%

CC(=O)O.NCCCC[C@H](N)C(=O)O [lysine acetate]
survival rate ([1]; amino acid alone at 133 μM in synergy with cefazolin): 68.6%

CSCC[C@H](N)C(=O)O [methionine]
survival rate ([1]; amino acid alone at 83 μM in synergy with cefazolin): 91.5%

N[C@@H](Cc1ccccc1)C(=O)O [phenylalanine]
survival rate ([1]; amino acid alone at 106 μM in synergy with cefazolin): 98.8%

O=C(O)[C@@H]1CCCN1 [proline]
survival rate ([1]; amino acid alone at 126 μM in synergy with cefazolin): 85.4%

N[C@@H](CO)C(=O)O [serine]
survival rate ([1]; amino acid alone at 47 μM in synergy with cefazolin): 67.9%

C[C@@H](O)[C@H](N)C(=O)O [threonine]
survival rate ([1]; amino acid alone at 105 μM in synergy with cefazolin): 59.4%

N[C@@H](Cc1c[nH]c2ccccc12)C(=O)O [tryptophan]
survival rate ([1]; amino acid alone at 20 μM in synergy with cefazolin): 67.4%

N[C@@H](Cc1ccc(O)cc1)C(=O)O [tyrosine]
survival rate ([1]; amino acid alone at 5 μM in synergy with cefazolin): 80.5%

CC(C)[C@H](N)C(=O)O [valine]
survival rate ([1]; amino acid alone at 136 μM in synergy with cefazolin): 78.8%
